pIC50: −log10 of the molar value. Structures can show the parent of a compound that is named as a salt. A value given as a limit tells only on which side of the number the result lay.

The experiment has as its target T1, Recombinant full length human OGA enzyme (Homo sapiens, UniProt O60502).
T1 construct: Recombinant full length human OGA enzyme was purchased from Origene; purchased Origene
T1 sequence (O60502 1-916): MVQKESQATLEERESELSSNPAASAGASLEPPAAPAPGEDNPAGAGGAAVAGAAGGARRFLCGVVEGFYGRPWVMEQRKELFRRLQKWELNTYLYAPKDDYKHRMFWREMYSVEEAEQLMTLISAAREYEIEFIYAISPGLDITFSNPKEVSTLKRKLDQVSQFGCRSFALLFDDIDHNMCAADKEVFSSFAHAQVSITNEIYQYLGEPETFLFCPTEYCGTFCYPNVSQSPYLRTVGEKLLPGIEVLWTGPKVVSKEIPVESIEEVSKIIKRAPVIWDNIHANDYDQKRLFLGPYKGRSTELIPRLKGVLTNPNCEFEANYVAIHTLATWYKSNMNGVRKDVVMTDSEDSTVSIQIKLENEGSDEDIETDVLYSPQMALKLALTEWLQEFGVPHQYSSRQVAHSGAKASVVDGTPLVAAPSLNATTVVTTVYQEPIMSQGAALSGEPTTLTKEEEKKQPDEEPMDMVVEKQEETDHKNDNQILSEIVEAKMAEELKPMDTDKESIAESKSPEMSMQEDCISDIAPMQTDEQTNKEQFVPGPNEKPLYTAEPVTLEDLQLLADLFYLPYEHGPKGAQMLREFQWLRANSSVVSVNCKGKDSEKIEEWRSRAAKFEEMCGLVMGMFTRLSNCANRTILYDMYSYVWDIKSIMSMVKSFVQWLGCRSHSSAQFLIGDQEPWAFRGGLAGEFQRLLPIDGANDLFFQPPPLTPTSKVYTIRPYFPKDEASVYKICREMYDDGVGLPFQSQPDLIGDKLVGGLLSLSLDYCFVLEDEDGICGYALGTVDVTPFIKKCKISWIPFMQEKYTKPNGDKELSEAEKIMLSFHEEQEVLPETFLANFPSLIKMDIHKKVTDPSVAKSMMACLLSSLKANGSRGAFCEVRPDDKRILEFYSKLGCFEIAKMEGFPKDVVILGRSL
Nature of the experiment: OGA Enzyme Inhibition Biochemical Assay. The settings on record: 1 nM OGA, 100 μM 4-MUGlcNAc (Km), pH 6.4, 90 minutes at room temperature; 10-point dose-response starting from 20 μM. How it is done:
OGA Enzyme Inhibition Biochemical Assay
Recombinant full length human OGA enzyme was purchased from Origene. 4-MUGlCNAc substrate was purchased from Sigma. All other reagents were purchased from Sigma or Fisher. Assay buffer consists of the McIlvaine buffer system, pH 6.4 (0.2M Na2HPO4 mixed with 0.1M citric acid) and 0.01% BSA. Reactions consist of 1 nM OGA, 100 μM 4-MUGlcNAc (Km), and compound in a final volume of 10 μl. Reactions were incubated for 90 minutes at room temperature and quenched with 40 μl of 3M glycine, pH 10 and read on a Perkin Elmer Envision plate reader (Ex: 355 nm/Em: 460 nm). Compounds were tested with a 10-point dose-response starting from 20 μM with a 4-fold dilution. Data was fit using GraphPad Prism using a 4-paramter fit with variable slope.
For `CC(=O)Nc1ncc(CN2C[C@@H](Cc3ncc(F)cn3)NC[C@@H]2C)s1` [Example 2-5], the pIC50 was 7.72. Turning to `CC(=O)Nc1ncc(CN2C[C@@H](Cc3ncc(F)cn3)N(C)C[C@@H]2C)s1` [Example 2-6, N-(5-(((2S,5R)-5-((5-fluoropyrimidin-2-yl)methyl)-2,4-dimethylpiperazin-1-yl)methyl)thiazol-2-yl)acetamide], the pIC50 was 7.77. For `CC(=O)Nc1ncc(CN2C[C@@H](Cc3ncc(F)cn3)N(C(C)=O)C[C@@H]2C)s1` [Example 2-7, N-(5-(((2S,5R)-4-acetyl-5-((5-fluoropyrimidin-2-yl)methyl)-2-methylpiperazin-1-yl)methyl)thiazol-2-yl)acetamide], the negative-log IC50 (pIC50) was 5.02. Under `CC(=O)Nc1ncc(CN2C[C@@H](Cc3cc(C)nc(C)c3)NC[C@@H]2C)s1` [Example 2-8, N-(5-(((2S,5R)-5-((2,6-dimethylpyridin-4-yl)methyl)-2-methylpiperazin-1-yl)methyl)thiazol-2-yl)acetamide] stands 8.04. Then `CC(=O)Nc1ncc(CN2C[C@@H](Cc3ccc(C)nc3)NC[C@@H]2C)s1` [Example 2-9, N-(5-(((2S,5R)-2-methyl-5-((6-methylpyridin-3-yl)methyl)piperazin-1-yl)methyl)thiazol-2-yl)acetamide], with 7.35; and `CC(=O)Nc1ncc(CN2C[C@@H](Cc3cc(C)nc(C)c3)N(C)C[C@@H]2C)s1` [Example 2-10], with 7.47. For `CC(=O)Nc1ncc(CN2C[C@@H](Cc3ccc(C)nc3)N(C)C[C@@H]2C)s1` [Example 2-11, N-(5-(((2S,5R)-2,4-dimethyl-5-((6-methylpyridin-3-yl)methyl)piperazin-1-yl)methyl)thiazol-2-yl)acetamide], the negative logarithm of the IC50 (pIC50) was 7.35.

With `CCN1C[C@H](C)N(Cc2cnc(NC(C)=O)s2)C[C@H]1Cc1ccc(C)nc1` [Example 2-12, N-(5-(((2S,5R)-4-ethyl-2-methyl-5-((6-methylpyridin-3-yl)methyl)piperazin-1-yl)methyl)thiazol-2-yl)acetamide], the negative logarithm of the IC50 (pIC50) is 6.74. `CC(=O)Nc1ncc(CN2C[C@@H](Cc3cc(C)nc(C)n3)NC[C@@H]2C)s1` [Example 2-13]: the negative-log IC50 (pIC50) was 7.66. Regarding `COc1cc(C[C@@H]2CN(Cc3cnc(NC(C)=O)s3)[C@@H](C)CN2)ccn1` [Example 2-14, N-(5-(((2S,5R)-5-((2-methoxypyridin-4-yl)methyl)-2-methylpiperazin-1-yl)methyl)thiazol-2-yl)acetamide], the negative-log IC50 (pIC50) was 8.12. Then `CC(=O)Nc1ncc(CN2C[C@@H](Cc3cc(C)nc(C)c3)N(C(C)=O)C[C@@H]2C)s1` [Example 2-15, N-(5-(((2S,5R)-4-acetyl-5-((2,6-dimethylpyridin-4-yl)methyl)-2-methylpiperazin-1-yl)methyl)thiazol-2-yl)acetamide], with 5.23.

As for `CC(=O)Nc1ncc(CN2C[C@@H](Cc3cc(C)nc(C)n3)N(C)C[C@@H]2C)s1` [Example 2-17], the pIC50 is 7.39. For `COc1cc(C[C@@H]2CN(Cc3cnc(NC(C)=O)s3)[C@@H](C)CN2C)ccn1` [Example 2-18], the pIC50 is 8.31. In the case of `CC(=O)Nc1ncc(CN2CCCNC(Cc3ncc(F)cn3)C2)s1` (stereo not shown) [Example 2-23, N-(5-((3-((5-fluoropyrimidin-2-yl)methyl)-1,4-diazepan-1-yl)methyl)thiazol-2-yl)acetamide], the pIC50 was 5.25. Under `CC(=O)Nc1ncc(CN2CCCN(C)C(Cc3ncc(F)cn3)C2)s1` (stereo not shown) [Example 2-24, N-(5-((3-((5-fluoropyrimidin-2-yl)methyl)-4-methyl-1,4-diazepan-1-yl)methyl)thiazol-2-yl)acetamide] stands 4.92; under `COc1cc(CC2CN(Cc3cnc(NC(C)=O)s3)CCCN2)ccn1` (stereo not shown) [Example 2-25, N-(5-((3-((2-methoxypyridin-4-yl)methyl)-1,4-diazepan-1-yl)methyl)thiazol-2-yl)acetamide], less than 4.70. Turning to `COc1cc(CC2CN(Cc3cnc(NC(C)=O)s3)CCCN2C(C)=O)ccn1` (stereo not shown) [Example 2-26, N-(5-((4-acetyl-3-((2-methoxypyridin-4-yl)methyl)-1,4-diazepan-1-yl)methyl)thiazol-2-yl)acetamide], the negative logarithm of the IC50 (pIC50) is less than 4.70. Then `CC(=O)Nc1ncc(CN2CCCNC(Cc3ccnc(C)c3)C2)s1` (stereo not shown) [Example 2-27, N-(5-((3-((2-methylpyridin-4-yl)methyl)-1,4-diazepan-1-yl)methyl)thiazol-2-yl)acetamide], with 5.00; and `CC(=O)Nc1ncc(CN2CCCNC(Cc3cc(C)nc(C)c3)C2)s1` (stereo not shown) [Example 2-28, N-(5-((3-((2,6-dimethylpyridin-4-yl)methyl)-1,4-diazepan-1-yl)methyl)thiazol-2-yl)acetamide], with 4.92.

As for `CC(=O)Nc1ncc(CN2CCCN(C(C)=O)C(Cc3cc(C)nc(C)c3)C2)s1` (stereo not shown) [Example 2-29, N-(5-((4-acetyl-3-((2,6-dimethylpyridin-4-yl)methyl)-1,4-diazepan-1-yl)methyl)thiazol-2-yl)acetamide], the pIC50 was less than 4.70. For the molecule `CC(=O)Nc1ncc(CN2C[C@@H](COc3cc(C)nc(C)c3)NC[C@@H]2C)s1` [Example 3-1, N-(5-(((2S,5S)-5-(((2,6-dimethylpyridin-4-yl)oxy)methyl)-2-methylpiperazin-1-yl)methyl)thiazol-2-yl)acetamide], the pIC50 was 7.68. Then `CC(=O)Nc1ncc(CN2C[C@@H](COc3cc(C)nc(C)c3)N(C)C[C@@H]2C)s1` [Example 3-2, N-(5-(((2S,5S)-5-(((2,6-dimethylpyridin-4-yl)oxy)methyl)-2,4-dimethylpiperazin-1-yl)methyl)thiazol-2-yl)acetamide], with 7.42; and `CC(=O)Nc1ncc(CN2C[C@@H](COc3cc(C)nc(C)c3)N(C(C)=O)C[C@@H]2C)s1` [Example 3-3], with 4.96. For `CC(=O)Nc1ncc(CN2C[C@@H](COc3cc(C)nc(C)c3)OC[C@@H]2C)s1` [Example 3-4, N-(5-(((2S,5S)-2-(((2,6-dimethylpyridin-4-yl)oxy)methyl)-5 methylmorpholino)methyl)thiazol-2-yl)acetamide], the pIC50 is 7.77. Take `CC(=O)Nc1ncc(CN2CCN(C)CC(COc3ncc(F)cn3)C2)s1` (stereo not shown) [Example 3-5, N-(5-((6-(((5-fluoropyrimidin-2-yl)oxy)methyl)-4-methyl-1,4-diazepan-1-yl)methyl)thiazol-2-yl)acetamide]: the pIC50 is less than 4.70. Then `CC(=O)Nc1ncc(CN2CCN[C@H](Cc3cc(C)nc(C)c3)C2)s1` [Example 4-1, (R)—N-(5-((3-((2,6-dimethylpyridin-4-yl)methyl)piperazin-1-yl)methyl)thiazol-2-yl)acetamide hydrochloride], with 5.15; and `CC(=O)Nc1ncc(CN2CCN[C@@H](Cc3cc(C)nc(C)c3)C2)s1` [Example 4-2, (S)—N-(5-((3-((2,6-dimethylpyridin-4-yl)methyl)piperazin-1-yl)methyl)thiazol-2-yl)acetamide hydrochloride], with 6.46; and `CC(=O)Nc1ncc(CN2CCN(C)[C@H](Cc3cc(C)nc(C)c3)C2)s1` [Example 4-3, (R)—N-(5-((3-((2,6-dimethylpyridin-4-yl)methyl)-4-methylpiperazin-1-yl)methyl)thiazol-2-yl)acetamide], with 5.80. Regarding `CC(=O)Nc1ncc(CN2CCN(C)[C@@H](Cc3cc(C)nc(C)c3)C2)s1` [Example 4-4, (S)—N-(5-((3-((2,6-dimethylpyridin-4-yl)methyl)-4-methylpiperazin-1-yl)methyl)thiazol-2-yl)acetamide], the pIC50 was 6.70. Take `CC(=O)Nc1ncc(CN2CCN(C)[C@H](Cc3ccnc(C)c3)C2)s1` [Example 4-9, (R)—N-(5-((4-methyl-3-((2-methylpyridin-4-yl)methyl)piperazin-1-yl)methyl)thiazol-2-yl)acetamide]: the pIC50 is less than 4.70.

For the molecule `CC(=O)Nc1ncc(CN2CCN(C)[C@@H](Cc3ccnc(C)c3)C2)s1` [Example 4-10, (S)—N-(5-((4-methyl-3-((2-methylpyridin-4-yl)methyl)piperazin-1-yl)methyl)thiazol-2-yl)acetamide], the pIC50 was 6.18.

Values taken from patent US12319679B2, “Morpholinyl, piperazinyl, oxazepanyl and diazepanyl O-glycoprotein-2-acetamido-2-deoxy-3-d-glucopyranosidase inhibitors” (BIOGEN MA INC., priority 2018, dated 2025).
